Reference: publication PMC6208650

Experiment: on-resin lactamisation, Asp side-chain COOH (C-terminal residue, anchored via Rink amide) + alpha-NH2 of N-terminal Dap(Boc); HATU/DIEA 1.05:2.1 equiv, overnight; then TFA cleavage
Conditions: 22-membered ring, NMP, 57.0 mM; for ring closure, product found: scale: 1 = cyclic product is largest ESI-MS signal, 0 = linear; for ring closure, conversion by HPLC: scale: % crude HPLC purity, 320 nm area of tallest peak or peak cluster
[1] = from CC(C)(C)OC(=O)NC[C@H](N)C(=O)N[C@@H](CNC(=O)c1cnc2ccccc2n1)C(=O)NCC(=O)NCC(=O)N[C@@H](CNC(=O)c1cnc2ccccc2n1)C(=O)N[C@@H](CNC(=O)c1cnc2ccccc2n1)C(=O)N[C@@H](CC(=O)O)C(N)=O
[2] = from CC(C)(C)OC(=O)NC[C@H](N)C(=O)N[C@@H](CNC(=O)c1cnc2ccccc2n1)C(=O)NCC(=O)N[C@@H](CNC(=O)c1cnc2ccccc2n1)C(=O)NCC(=O)NCC(=O)N[C@@H](CC(=O)O)C(N)=O
[3] = from CC(C)(C)OC(=O)NC[C@H](N)C(=O)NCC(=O)NCC(=O)N[C@@H](CNC(=O)c1cnc2ccccc2n1)C(=O)NCC(=O)N[C@@H](CNC(=O)c1cnc2ccccc2n1)C(=O)N[C@@H](CC(=O)O)C(N)=O
[4] = from CC(C)(C)OC(=O)NC[C@H](N)C(=O)NCC(=O)N[C@@H](CNC(=O)c1cnc2ccccc2n1)C(=O)N[C@@H](CNC(=O)c1cnc2ccccc2n1)C(=O)NCC(=O)N[C@@H](CNC(=O)c1cnc2ccccc2n1)C(=O)N[C@@H](CC(=O)O)C(N)=O
[5] = from CC(C)(C)OC(=O)NC[C@H](N)C(=O)N[C@@H](CNC(=O)c1cnc2ccccc2n1)C(=O)N[C@@H](CNC(=O)c1cnc2ccccc2n1)C(=O)N[C@@H](CNC(=O)c1cnc2ccccc2n1)C(=O)NCC(=O)NCC(=O)N[C@@H](CC(=O)O)C(N)=O
[6] = from CC(C)(C)OC(=O)NC[C@H](N)C(=O)NCC(=O)N[C@@H](CNC(=O)c1cnc2ccccc2n1)C(=O)NCC(=O)NCC(=O)N[C@@H](CNC(=O)c1cnc2ccccc2n1)C(=O)N[C@@H](CC(=O)O)C(N)=O
[7] = from CC(C)(C)OC(=O)NC[C@H](N)C(=O)NCC(=O)N[C@@H](CNC(=O)c1cnc2ccccc2n1)C(=O)N[C@@H](CNC(=O)c1cnc2ccccc2n1)C(=O)N[C@@H](CNC(=O)c1cnc2ccccc2n1)C(=O)NCC(=O)N[C@@H](CC(=O)O)C(N)=O
[8] = from CC(C)(C)OC(=O)NC[C@H](N)C(=O)N[C@@H](CNC(=O)c1cnc2ccccc2n1)C(=O)NCC(=O)NCC(=O)N[C@@H](CNC(=O)c1cnc2ccccc2n1)C(=O)NCC(=O)N[C@@H](CC(=O)O)C(N)=O
[9] = from CC(C)(C)OC(=O)NC[C@H](N)C(=O)N[C@@H](CNC(=O)c1cnc2ccccc2n1)C(=O)N[C@@H](CNC(=O)c1cnc2ccccc2n1)C(=O)NCC(=O)NCC(=O)N[C@@H](CNC(=O)c1cnc2ccccc2n1)C(=O)N[C@@H](CC(=O)O)C(N)=O
[10] = from CC(C)(C)OC(=O)NC[C@H](N)C(=O)NCC(=O)NCC(=O)N[C@@H](CNC(=O)c1cnc2ccccc2n1)C(=O)N[C@@H](CNC(=O)c1cnc2ccccc2n1)C(=O)N[C@@H](CNC(=O)c1cnc2ccccc2n1)C(=O)N[C@@H](CC(=O)O)C(N)=O
[11] = from CC(C)(C)OC(=O)NC[C@H](N)C(=O)N[C@@H](CNC(=O)c1cnc2ccccc2n1)C(=O)N[C@@H](CNC(=O)c1cnc2ccccc2n1)C(=O)NCC(=O)N[C@@H](CNC(=O)c1cnc2ccccc2n1)C(=O)NCC(=O)N[C@@H](CC(=O)O)C(N)=O

NC[C@@H]1NC(=O)C[C@@H](C(N)=O)NC(=O)[C@H](CNC(=O)c2cnc3ccccc3n2)NC(=O)[C@H](CNC(=O)c2cnc3ccccc3n2)NC(=O)CNC(=O)CNC(=O)[C@H](CNC(=O)c2cnc3ccccc3n2)NC1=O
ring closure, product found [1]: 0 | ring closure, conversion by HPLC [1]: < 30

NC[C@@H]1NC(=O)C[C@@H](C(N)=O)NC(=O)CNC(=O)CNC(=O)[C@H](CNC(=O)c2cnc3ccccc3n2)NC(=O)CNC(=O)[C@H](CNC(=O)c2cnc3ccccc3n2)NC1=O
ring closure, product found [2]: 1 | ring closure, conversion by HPLC [2]: 39

NC[C@@H]1NC(=O)C[C@@H](C(N)=O)NC(=O)[C@H](CNC(=O)c2cnc3ccccc3n2)NC(=O)CNC(=O)[C@H](CNC(=O)c2cnc3ccccc3n2)NC(=O)CNC(=O)CNC1=O
ring closure, product found [3]: 1 | ring closure, conversion by HPLC [3]: 76

NC[C@@H]1NC(=O)C[C@@H](C(N)=O)NC(=O)[C@H](CNC(=O)c2cnc3ccccc3n2)NC(=O)CNC(=O)[C@H](CNC(=O)c2cnc3ccccc3n2)NC(=O)[C@H](CNC(=O)c2cnc3ccccc3n2)NC(=O)CNC1=O
ring closure, product found [4]: 0 | ring closure, conversion by HPLC [4]: < 34

NC[C@@H]1NC(=O)C[C@@H](C(N)=O)NC(=O)CNC(=O)CNC(=O)[C@H](CNC(=O)c2cnc3ccccc3n2)NC(=O)[C@H](CNC(=O)c2cnc3ccccc3n2)NC(=O)[C@H](CNC(=O)c2cnc3ccccc3n2)NC1=O
ring closure, product found [5]: 1 | ring closure, conversion by HPLC [5]: 25

NC[C@@H]1NC(=O)C[C@@H](C(N)=O)NC(=O)[C@H](CNC(=O)c2cnc3ccccc3n2)NC(=O)CNC(=O)CNC(=O)[C@H](CNC(=O)c2cnc3ccccc3n2)NC(=O)CNC1=O
ring closure, product found [6]: 1 | ring closure, conversion by HPLC [6]: 56

NC[C@@H]1NC(=O)C[C@@H](C(N)=O)NC(=O)CNC(=O)[C@H](CNC(=O)c2cnc3ccccc3n2)NC(=O)[C@H](CNC(=O)c2cnc3ccccc3n2)NC(=O)[C@H](CNC(=O)c2cnc3ccccc3n2)NC(=O)CNC1=O
ring closure, product found [7]: 1 | ring closure, conversion by HPLC [7]: 79

NC[C@@H]1NC(=O)C[C@@H](C(N)=O)NC(=O)CNC(=O)[C@H](CNC(=O)c2cnc3ccccc3n2)NC(=O)CNC(=O)CNC(=O)[C@H](CNC(=O)c2cnc3ccccc3n2)NC1=O
ring closure, product found [8]: 1 | ring closure, conversion by HPLC [8]: 53

NC[C@@H]1NC(=O)C[C@@H](C(N)=O)NC(=O)[C@H](CNC(=O)c2cnc3ccccc3n2)NC(=O)CNC(=O)CNC(=O)[C@H](CNC(=O)c2cnc3ccccc3n2)NC(=O)[C@H](CNC(=O)c2cnc3ccccc3n2)NC1=O
ring closure, product found [9]: 1 | ring closure, conversion by HPLC [9]: 48

NC[C@@H]1NC(=O)C[C@@H](C(N)=O)NC(=O)[C@H](CNC(=O)c2cnc3ccccc3n2)NC(=O)[C@H](CNC(=O)c2cnc3ccccc3n2)NC(=O)[C@H](CNC(=O)c2cnc3ccccc3n2)NC(=O)CNC(=O)CNC1=O
ring closure, product found [10]: 0 | ring closure, conversion by HPLC [10]: < 48

NC[C@@H]1NC(=O)C[C@@H](C(N)=O)NC(=O)CNC(=O)[C@H](CNC(=O)c2cnc3ccccc3n2)NC(=O)CNC(=O)[C@H](CNC(=O)c2cnc3ccccc3n2)NC(=O)[C@H](CNC(=O)c2cnc3ccccc3n2)NC1=O
ring closure, product found [11]: 1 | ring closure, conversion by HPLC [11]: 49
